From patent US20190263804A1, “AZABENZIMIDAZOLE DERIVATIVES AS PI3K BETA INHIBITORS” (Janssen Pharmaceutica NV, priority 2016, published 2019)

Assays:
[1] = molecular target: T1, PIK3Cα_h (Homo sapiens, UniProt P42336); experiment: KINOMEscan enzyme binding assay, PIK3Cα; settings: KINOMEscan (DiscoveRx)
T1 construct: purchased DiscoveRx Corporation, San Diego (contract assay service)
Procedure: (§1) Enzyme Binding Assays (KINOMEscan®)
(§2) Kinase enzyme binding affinities of compounds disclosed herein were determined using the KINOMEscan technology performed by DiscoveRx Corporation, San Diego, Calif., USA (www.kinomescan.com). Table A reports the obtained Kd values (nM), with the Kd being the inhibitor binding constant (‘n.d.’ means not determined): […]

[2] = molecular target: T2, MTOR_h (Homo sapiens, UniProt P42345); experiment: KINOMEscan enzyme binding assay, MTOR; settings: KINOMEscan (DiscoveRx)
T2 construct: purchased DiscoveRx Corporation, San Diego (contract assay service)
Procedure: as §1, §2

[3] = molecular target: T3, PIK3Cγ_h (Homo sapiens, UniProt P48736); experiment: KINOMEscan enzyme binding assay, PIK3Cγ; settings: KINOMEscan (DiscoveRx)
T3 construct: purchased DiscoveRx Corporation, San Diego (contract assay service)
T3 sequence (P48736 whole entry): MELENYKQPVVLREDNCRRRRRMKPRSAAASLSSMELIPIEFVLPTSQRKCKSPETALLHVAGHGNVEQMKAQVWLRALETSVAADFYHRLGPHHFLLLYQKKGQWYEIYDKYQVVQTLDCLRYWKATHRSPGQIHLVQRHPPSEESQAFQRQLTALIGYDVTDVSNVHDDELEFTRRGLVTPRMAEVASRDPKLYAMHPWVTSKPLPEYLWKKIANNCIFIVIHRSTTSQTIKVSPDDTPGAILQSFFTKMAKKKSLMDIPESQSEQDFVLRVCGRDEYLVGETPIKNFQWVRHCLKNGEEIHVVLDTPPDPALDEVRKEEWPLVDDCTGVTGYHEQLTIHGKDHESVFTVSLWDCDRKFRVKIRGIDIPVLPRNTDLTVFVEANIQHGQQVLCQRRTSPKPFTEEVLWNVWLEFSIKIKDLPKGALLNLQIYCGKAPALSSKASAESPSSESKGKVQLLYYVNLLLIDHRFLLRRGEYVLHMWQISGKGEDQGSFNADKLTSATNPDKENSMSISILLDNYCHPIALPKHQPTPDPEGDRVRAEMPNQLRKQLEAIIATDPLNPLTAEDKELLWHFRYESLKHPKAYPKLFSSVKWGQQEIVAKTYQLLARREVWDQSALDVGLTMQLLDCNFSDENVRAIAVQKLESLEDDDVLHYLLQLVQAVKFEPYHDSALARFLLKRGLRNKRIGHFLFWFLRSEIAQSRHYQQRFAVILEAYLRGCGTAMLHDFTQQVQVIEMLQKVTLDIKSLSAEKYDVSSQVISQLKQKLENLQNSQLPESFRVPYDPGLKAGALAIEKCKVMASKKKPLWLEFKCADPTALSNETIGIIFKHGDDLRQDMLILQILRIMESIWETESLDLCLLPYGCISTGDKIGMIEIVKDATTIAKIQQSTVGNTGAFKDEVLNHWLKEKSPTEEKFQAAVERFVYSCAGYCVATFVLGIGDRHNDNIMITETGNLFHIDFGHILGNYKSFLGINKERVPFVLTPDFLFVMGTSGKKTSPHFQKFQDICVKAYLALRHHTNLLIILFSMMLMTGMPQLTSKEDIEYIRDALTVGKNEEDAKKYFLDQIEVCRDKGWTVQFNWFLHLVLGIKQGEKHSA
Procedure: as §1, §2

[4] = tested on: phosphorylation of Akt (Thr308) in PC-3 cells; experiment: Cellular assay: phospho-Akt (Thr308) MSD ELISA in PC-3 cells; format: cell-based; settings: Homo sapiens, 1 h, 60 min compound incubation, read-out: IC50 pAkt_Thr308
Procedure: (§3) Cellular activity of PI3K(3 inhibitors was determined by quantifying the phosphorylation of Akt in PC-3 cells. Akt phosphorylated at Ser473 and Thr308 were measured using an enzyme-linked immunosorbent assay (ELISA; Meso Scale Discovery (MSD), Gaithersburg, Md.) and specific primary antibodies from MSD.
(§4) On day 1, PC3 cells (ATCC # […]) were seeded into PerkinElmer MW96 plates at 25.000 cells per well, in 75 μl complete culture medium (DMEM high glucose, AQmedia™, D0819, Sigma-Aldrich) containing 10% heat inactivated FCS and incubated at 37° C., 5% CO2 during 24 hours. On day 2, compound or DMSO (0.3%) was added and cells were further incubated for 60 min at 37° C., 5% CO2 in a total volume of 100 μl of medium.
(§5) The phosphoprotein assay was executed according to vendor instructions in the Phospho-Akt (Ser473) Assay Whole Cell Lysate Kit (MSD # K15100D-3) and the Phospho-Akt (Thr308) Assay Whole Cell Lysate Kit (MSD # K151DYD-3) using the lysis, blocking and wash buffer provided.
(§6) Briefly, at the end of the cell treatment period, media were removed by aspiration and adherent cells were lysed in 50 μl ice-cold lysis buffer. MSD plates are supplied pre-coated with capture antibodies for Phospho-Akt (Ser473 and Thr308). After blocking, lysates from tissue culture plates were added and plates were washed. Then, a solution containing the detection antibody (anti-total Akt conjugated with an electrochemiluminescent compound-MSD Sulfo-tag label) was added. The signals were detected using an MSD SECTOR Imager 6000 and are proportional to the phospho-Akt titres.
(§7) Data were processed. The percentage of inhibition was plotted against the log concentration of test compounds, and the sigmoidal log concentration-effect curve of best fit was calculated by nonlinear regression analysis. From these concentration-response curves, the IC50 values were calculated. Five concentrations were used for curve fitting.

[5] = molecular target: T4, PIK3Cβ_h (Homo sapiens, UniProt P42338); experiment: KINOMEscan enzyme binding assay, PIK3Cβ; settings: KINOMEscan (DiscoveRx)
T4 construct: purchased DiscoveRx Corporation, San Diego (contract assay service)
T4 sequence (P42338 whole entry): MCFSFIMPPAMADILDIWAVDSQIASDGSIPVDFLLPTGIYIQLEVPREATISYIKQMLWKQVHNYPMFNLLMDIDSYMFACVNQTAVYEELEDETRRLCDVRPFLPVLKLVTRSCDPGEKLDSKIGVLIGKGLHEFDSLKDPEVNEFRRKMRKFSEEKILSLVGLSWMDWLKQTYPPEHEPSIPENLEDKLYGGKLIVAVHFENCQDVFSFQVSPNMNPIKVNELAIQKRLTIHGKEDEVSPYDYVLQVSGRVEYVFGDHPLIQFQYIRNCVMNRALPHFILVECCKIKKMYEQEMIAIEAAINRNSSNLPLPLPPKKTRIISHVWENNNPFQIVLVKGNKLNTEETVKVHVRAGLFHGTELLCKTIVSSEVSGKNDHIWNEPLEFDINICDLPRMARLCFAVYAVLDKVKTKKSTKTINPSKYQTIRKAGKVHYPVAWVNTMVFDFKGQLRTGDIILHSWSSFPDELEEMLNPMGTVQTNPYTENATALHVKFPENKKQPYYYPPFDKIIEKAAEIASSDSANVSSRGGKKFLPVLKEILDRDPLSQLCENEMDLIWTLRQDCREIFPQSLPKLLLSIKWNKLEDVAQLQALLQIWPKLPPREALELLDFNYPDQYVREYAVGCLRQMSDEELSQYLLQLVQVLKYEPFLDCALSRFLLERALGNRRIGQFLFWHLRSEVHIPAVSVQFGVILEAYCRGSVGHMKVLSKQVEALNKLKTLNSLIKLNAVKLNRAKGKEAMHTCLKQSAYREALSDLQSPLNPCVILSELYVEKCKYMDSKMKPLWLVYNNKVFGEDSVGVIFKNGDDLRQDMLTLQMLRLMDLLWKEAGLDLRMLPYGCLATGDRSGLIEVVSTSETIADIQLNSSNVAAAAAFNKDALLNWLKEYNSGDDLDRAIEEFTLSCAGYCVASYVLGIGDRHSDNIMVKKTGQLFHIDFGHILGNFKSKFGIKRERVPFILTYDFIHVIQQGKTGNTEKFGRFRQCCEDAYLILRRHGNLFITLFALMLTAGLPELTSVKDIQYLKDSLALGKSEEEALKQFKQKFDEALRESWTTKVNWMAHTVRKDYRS
Procedure: as §1, §2

[6] = tested on: phosphorylation of Akt (Ser473) in PC-3 cells; experiment: Cellular assay: phospho-Akt (Ser473) MSD ELISA in PC-3 cells; format: cell-based; settings: Homo sapiens, 1 h, 60 min compound incubation, read-out: IC50 pAkt_S473
Procedure: as §3, §4, §5, §6, §7

[7] = molecular target: T5, PIK3Cδ_h (Homo sapiens, UniProt O00329); experiment: KINOMEscan enzyme binding assay, PIK3Cδ; settings: KINOMEscan (DiscoveRx)
T5 construct: purchased DiscoveRx Corporation, San Diego (contract assay service)
T5 sequence (O00329 1-1044): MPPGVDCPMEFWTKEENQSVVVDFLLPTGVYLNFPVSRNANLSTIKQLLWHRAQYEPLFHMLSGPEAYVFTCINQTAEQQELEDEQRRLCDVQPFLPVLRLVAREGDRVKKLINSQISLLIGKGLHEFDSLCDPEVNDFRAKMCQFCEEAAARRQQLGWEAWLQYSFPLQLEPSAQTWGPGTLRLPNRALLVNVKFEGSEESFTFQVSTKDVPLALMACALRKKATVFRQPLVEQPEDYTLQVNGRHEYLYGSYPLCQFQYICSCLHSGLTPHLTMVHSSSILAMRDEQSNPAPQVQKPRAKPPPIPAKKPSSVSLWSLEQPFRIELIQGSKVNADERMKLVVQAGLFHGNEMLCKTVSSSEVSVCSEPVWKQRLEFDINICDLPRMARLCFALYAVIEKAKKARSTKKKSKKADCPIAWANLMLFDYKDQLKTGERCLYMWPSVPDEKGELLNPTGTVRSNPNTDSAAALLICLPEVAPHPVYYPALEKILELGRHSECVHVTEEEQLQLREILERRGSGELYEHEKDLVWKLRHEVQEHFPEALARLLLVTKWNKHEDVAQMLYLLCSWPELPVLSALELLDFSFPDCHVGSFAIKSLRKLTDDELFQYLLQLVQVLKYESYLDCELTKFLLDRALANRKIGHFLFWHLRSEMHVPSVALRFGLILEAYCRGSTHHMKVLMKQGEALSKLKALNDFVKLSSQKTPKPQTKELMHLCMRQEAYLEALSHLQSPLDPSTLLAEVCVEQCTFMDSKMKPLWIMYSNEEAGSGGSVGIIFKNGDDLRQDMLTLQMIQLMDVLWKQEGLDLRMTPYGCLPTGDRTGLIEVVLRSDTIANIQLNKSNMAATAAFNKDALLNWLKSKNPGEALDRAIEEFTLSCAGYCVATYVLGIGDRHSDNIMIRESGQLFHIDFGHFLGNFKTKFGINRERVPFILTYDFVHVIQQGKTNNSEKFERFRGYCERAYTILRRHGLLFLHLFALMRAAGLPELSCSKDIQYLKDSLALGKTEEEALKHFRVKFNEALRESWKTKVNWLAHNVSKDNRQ
Procedure: as §1, §2

T1 sequence (P42336 whole entry): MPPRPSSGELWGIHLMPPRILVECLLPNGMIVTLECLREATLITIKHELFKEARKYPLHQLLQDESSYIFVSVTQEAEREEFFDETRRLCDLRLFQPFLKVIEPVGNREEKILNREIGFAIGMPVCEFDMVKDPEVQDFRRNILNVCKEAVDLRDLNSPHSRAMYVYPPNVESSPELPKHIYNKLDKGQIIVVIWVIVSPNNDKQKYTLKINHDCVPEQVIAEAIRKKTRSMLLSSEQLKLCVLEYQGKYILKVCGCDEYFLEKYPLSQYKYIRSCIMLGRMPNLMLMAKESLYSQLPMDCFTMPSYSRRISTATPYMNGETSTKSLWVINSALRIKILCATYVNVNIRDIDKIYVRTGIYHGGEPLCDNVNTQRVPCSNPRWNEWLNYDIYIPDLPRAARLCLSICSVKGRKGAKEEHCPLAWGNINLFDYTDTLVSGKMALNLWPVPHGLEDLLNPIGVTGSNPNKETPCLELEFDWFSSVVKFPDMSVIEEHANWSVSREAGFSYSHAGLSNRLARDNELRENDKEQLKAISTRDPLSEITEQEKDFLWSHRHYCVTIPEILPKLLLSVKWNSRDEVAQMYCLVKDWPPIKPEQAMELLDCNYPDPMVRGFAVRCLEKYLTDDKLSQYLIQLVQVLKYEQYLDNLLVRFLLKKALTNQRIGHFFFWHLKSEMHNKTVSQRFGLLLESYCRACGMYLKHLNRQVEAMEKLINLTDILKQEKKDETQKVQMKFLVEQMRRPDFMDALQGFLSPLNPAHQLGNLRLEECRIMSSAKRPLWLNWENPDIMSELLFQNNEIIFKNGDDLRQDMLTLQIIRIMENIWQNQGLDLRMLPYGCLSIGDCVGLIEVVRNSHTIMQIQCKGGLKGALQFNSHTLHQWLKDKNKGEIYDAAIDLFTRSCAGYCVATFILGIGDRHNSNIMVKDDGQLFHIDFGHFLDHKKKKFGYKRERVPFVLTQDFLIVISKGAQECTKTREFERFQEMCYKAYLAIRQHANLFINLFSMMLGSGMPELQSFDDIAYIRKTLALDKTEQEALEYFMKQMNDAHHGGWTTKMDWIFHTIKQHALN

SMILES	Kd [1] [nM]	Kd [2] [nM]	Kd [3] [nM]	IC50 [4] [nM]	Kd [5] [nM]	IC50 [6] [nM]	Kd [7] [nM]
Cc1c(Cn2c(CN3CC4(CC(O)C4)C3)nc3cnc(N4CCOCC4)cc32)cccc1C(F)(F)F [Compound 3]	1600	> 30200	> 30200	40	1	70	200
Cc1c(Cn2c(CN3CC(O)C3)nc3cnc(N4CCOCC4)cc32)cccc1C(F)(F)F [Compound 7]	2200	4600	> 30200	390	3	480	1100
Cc1c(Cn2c(C)nc3c(N)nc(C4=CCOCC4)cc32)cccc1C(F)(F)F [Compound 4]	17000	> 30200	> 30200	150	9	~140	4300
Cc1c(Cn2c(C)nc3cnc(N4CCOCC4)cc32)cccc1C(F)(F)F [Compound 2]	3700	> 30200	22400	430	2	180	1500
Cc1c(Cl)cccc1Cn1c(CN2CCS(=O)(=O)CC2)nc2cnc(N3CCOCC3)cc21 [Compound 5]	2600	> 30200	> 30200	130	4	~100	1500
Cc1c(Cn2c(CO)nc3cnc(N4CCOCC4)cc32)cccc1C(F)(F)F [Compound 6]	2800	≥ 30200	18200	40	1	50	800
Cc1c(Cl)cccc1Cn1c(C)nc2cnc(N3CCOCC3)cc21 [Compound 1]	2100	≥ 30200	9500	30	2	40	600

Further lines, results first:

Kd [1] [nM]	Kd [2] [nM]	Kd [3] [nM]	IC50 [4] [nM]	Kd [5] [nM]	IC50 [6] [nM]	Kd [7] [nM]	SMILES
8700	> 30200	32400	> 510	27	> 510	1300	Cc1nc2cnc(N3CCOCC3)cc2n1Cc1cccc2c1CN(CCO)CC2 [Compound 11]
> 30200	> 30200	21900	220	11	320	3300	Cc1c(F)cccc1Cn1c(C)nc2c(N)nc(C3=CCOCC3)cc21 [Compound 14]
13200	> 30200	> 30200	110	3	310	700	Cc1cccc(Cn2c(C)nc3c(N)nc(C4=CCOCC4)cc32)c1C [Compound 12]
8300	> 30200	> 30200	190	19	~230	1500	Cc1cccc(Cn2c(C)nc3c(N)nc(N4CCOCC4)cc32)c1C [Compound 17]
> 30200	> 30200	> 30200	180	132	410	5600	Cc1c(F)cccc1Cn1c(C)nc2c(N)nc(N3CCOCC3)cc21 [Compound 16]
> 30200	> 30200	> 30200	~460	79	~480	5100	Cc1nc2cnc(N3CCOCC3)cc2n1Cc1cccc2c1CNCC2 [Compound 9]
26900	> 30200	> 30200	> 510	100	> 510	4200	Cc1nc2cnc(N3CCOCC3)cc2n1Cc1cccc2c1CN(C)CC2 [Compound 10]
18200	> 30200	> 30200	90	398	120	6300	Cc1c(Cn2c(C)nc3c(N)nc(N4CCOCC4)cc32)cccc1C(F)(F)F [Compound 15]
11000	> 30200	> 30200	290	11	–	2600	Cc1c(Cn2c(CN3CCS(=O)(=O)CC3)nc3cnc(N4CCOCC4)cc32)cccc1C(F)(F)F [Compound 8]
5900	> 30200	17000	80	3	170	1300	Cc1c(Cn2c(C)nc3cnc(C4=CCOCC4)cc32)cccc1C(F)(F)F [Compound 13]
